Measured values taken from ChEMBL document CHEMBL1155451, “Complexes of bacterial nicotinate mononucleotide adenylyltransferase with inhibitors: implication for structure-based drug design and improvement” (J Med Chem, 2010).
Active and inactive are the calls of the source. The rule behind the calls is not given here.

What was measured:
[1] = target: T1, Probable nicotinate-nucleotide adenylyltransferase (Bacillus anthracis) (UniProt C3L5T6); experiment: Inhibition of Bacillus anthracis nicotinate-nucleotide adenosyltransferase up to 100 uM preincubated for 5 mins before addition of substrate by malachite green reagent method
T1 sequence (whole entry): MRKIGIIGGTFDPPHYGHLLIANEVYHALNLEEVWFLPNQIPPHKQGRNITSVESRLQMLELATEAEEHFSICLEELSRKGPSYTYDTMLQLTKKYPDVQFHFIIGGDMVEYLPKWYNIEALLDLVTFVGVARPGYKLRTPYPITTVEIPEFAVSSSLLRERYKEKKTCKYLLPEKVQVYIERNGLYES

[2] = target: T2, Probable nicotinate-nucleotide adenylyltransferase (Bacillus anthracis, UniProt C3L5T6)
T2 sequence (C3L5T6 whole entry): T1 sequence (whole entry)

For `O=C(O)CN(/N=C/c1ccc(/C=N/N(CC(=O)O)C(=O)CCC(=O)Nc2ccccc2Cl)cc1)C(=O)CCC(=O)Nc1ccccc1Cl`, the inhibition [1] was “inactive”.

For `CC(/C=N/NC(=O)CCC(=O)Nc1ccc(Br)cc1)c1ccc2ccccc2c1` (stereo not drawn), the IC50 [2] was over 200 µM.

`O=C(O)CN(/N=C/c1cccc2ccccc12)C(=O)CCC(=O)Nc1ccccc1Cl` gave an IC50 [2] of over 200 µM.
